From patent publication US20230416248A1, “COMPOUNDS AND USES THEREOF” (Foghorn Therapeutics Inc., priority 2020, published 2023)

What was measured:
BRM = molecular target: T1, BRM (Homo sapiens, UniProt P51531); experiment: ATPase catalytic activity of BRM, ADP-Glo in vitro biochemical assay; conditions: for IC50: ATPase catalytic activity, ADP-Glo, 30 nM BRM, 400 μM ATP; for Ratio*: ratio of BRG1 IC50 to BRM IC50
T1 construct: made in house; host or cells: High Five insect cells
In short: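 ADP-Glo luminescence, after depletion of leftover ATP and conversion of ADP, reported the activity. The 1 h room-temperature reaction held 400 μM ATP, 20 nM salmon sperm DNA and 30 nM BRM in 20 mM Tris pH 8, 20 mM MgCl2, 50 mM NaCl, 0.1% Tween-20, 1 mM DTT.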

BRG-1 = molecular target: T2, BRG-1 (Homo sapiens, UniProt P51532); experiment: ATPase catalytic activity of BRG-1, ADP-Glo in vitro biochemical assay; conditions: ATPase catalytic activity, ADP-Glo; 30 nM BRG-1, 400 μM ATP; read-out: BRG1 IC50
T2 construct: made in house; host or cells: High Five insect cells
T2 sequence (P51532 whole entry): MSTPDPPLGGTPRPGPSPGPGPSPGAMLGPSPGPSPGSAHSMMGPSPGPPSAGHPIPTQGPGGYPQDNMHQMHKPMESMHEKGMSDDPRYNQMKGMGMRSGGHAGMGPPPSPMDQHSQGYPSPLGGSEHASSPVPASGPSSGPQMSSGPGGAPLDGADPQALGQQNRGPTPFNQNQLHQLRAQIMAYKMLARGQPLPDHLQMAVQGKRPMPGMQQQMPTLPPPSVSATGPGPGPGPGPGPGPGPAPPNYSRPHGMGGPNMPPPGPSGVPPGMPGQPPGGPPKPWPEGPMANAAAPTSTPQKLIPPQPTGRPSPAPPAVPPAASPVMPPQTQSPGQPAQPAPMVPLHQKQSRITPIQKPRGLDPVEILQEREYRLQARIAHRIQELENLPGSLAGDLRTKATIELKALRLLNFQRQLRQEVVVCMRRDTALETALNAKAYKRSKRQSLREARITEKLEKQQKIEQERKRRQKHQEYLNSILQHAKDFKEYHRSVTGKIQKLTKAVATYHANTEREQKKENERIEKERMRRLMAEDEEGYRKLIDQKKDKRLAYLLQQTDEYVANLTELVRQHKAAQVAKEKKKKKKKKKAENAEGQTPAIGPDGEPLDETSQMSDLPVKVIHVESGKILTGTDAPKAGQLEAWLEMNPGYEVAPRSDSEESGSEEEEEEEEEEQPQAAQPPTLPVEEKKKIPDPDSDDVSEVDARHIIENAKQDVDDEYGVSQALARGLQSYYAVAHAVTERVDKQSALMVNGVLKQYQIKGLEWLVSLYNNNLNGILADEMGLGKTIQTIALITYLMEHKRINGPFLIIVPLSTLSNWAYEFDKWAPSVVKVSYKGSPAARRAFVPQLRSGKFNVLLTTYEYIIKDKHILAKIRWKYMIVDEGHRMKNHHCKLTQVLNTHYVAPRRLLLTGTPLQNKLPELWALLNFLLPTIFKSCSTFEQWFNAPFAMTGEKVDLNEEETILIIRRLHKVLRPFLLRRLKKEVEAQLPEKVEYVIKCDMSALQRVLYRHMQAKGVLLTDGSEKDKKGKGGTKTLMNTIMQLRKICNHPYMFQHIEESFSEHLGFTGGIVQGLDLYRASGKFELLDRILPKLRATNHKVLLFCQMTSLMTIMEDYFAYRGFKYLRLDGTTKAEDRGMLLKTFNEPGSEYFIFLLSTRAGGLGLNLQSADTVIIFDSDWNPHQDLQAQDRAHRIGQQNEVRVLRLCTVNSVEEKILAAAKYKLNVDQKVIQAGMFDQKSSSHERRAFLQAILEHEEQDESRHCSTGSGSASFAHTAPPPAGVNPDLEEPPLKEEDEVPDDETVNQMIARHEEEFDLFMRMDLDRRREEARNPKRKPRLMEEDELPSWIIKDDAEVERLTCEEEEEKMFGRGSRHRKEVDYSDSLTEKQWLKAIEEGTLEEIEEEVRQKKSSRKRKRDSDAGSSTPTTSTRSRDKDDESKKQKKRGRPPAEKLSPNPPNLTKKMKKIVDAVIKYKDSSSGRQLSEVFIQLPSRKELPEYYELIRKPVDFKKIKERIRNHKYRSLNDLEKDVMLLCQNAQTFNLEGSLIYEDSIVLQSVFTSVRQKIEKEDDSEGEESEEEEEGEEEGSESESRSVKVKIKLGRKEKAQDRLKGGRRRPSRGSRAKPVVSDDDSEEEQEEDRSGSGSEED
In short: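 Once the ATPase reaction finished, leftover ATP was depleted over 40 minutes at room temperature. Generated ADP was next turned back into ATP during a 60-minute room-temperature step. Luciferase-derived light was then measured.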

T1 sequence (P51531 whole entry): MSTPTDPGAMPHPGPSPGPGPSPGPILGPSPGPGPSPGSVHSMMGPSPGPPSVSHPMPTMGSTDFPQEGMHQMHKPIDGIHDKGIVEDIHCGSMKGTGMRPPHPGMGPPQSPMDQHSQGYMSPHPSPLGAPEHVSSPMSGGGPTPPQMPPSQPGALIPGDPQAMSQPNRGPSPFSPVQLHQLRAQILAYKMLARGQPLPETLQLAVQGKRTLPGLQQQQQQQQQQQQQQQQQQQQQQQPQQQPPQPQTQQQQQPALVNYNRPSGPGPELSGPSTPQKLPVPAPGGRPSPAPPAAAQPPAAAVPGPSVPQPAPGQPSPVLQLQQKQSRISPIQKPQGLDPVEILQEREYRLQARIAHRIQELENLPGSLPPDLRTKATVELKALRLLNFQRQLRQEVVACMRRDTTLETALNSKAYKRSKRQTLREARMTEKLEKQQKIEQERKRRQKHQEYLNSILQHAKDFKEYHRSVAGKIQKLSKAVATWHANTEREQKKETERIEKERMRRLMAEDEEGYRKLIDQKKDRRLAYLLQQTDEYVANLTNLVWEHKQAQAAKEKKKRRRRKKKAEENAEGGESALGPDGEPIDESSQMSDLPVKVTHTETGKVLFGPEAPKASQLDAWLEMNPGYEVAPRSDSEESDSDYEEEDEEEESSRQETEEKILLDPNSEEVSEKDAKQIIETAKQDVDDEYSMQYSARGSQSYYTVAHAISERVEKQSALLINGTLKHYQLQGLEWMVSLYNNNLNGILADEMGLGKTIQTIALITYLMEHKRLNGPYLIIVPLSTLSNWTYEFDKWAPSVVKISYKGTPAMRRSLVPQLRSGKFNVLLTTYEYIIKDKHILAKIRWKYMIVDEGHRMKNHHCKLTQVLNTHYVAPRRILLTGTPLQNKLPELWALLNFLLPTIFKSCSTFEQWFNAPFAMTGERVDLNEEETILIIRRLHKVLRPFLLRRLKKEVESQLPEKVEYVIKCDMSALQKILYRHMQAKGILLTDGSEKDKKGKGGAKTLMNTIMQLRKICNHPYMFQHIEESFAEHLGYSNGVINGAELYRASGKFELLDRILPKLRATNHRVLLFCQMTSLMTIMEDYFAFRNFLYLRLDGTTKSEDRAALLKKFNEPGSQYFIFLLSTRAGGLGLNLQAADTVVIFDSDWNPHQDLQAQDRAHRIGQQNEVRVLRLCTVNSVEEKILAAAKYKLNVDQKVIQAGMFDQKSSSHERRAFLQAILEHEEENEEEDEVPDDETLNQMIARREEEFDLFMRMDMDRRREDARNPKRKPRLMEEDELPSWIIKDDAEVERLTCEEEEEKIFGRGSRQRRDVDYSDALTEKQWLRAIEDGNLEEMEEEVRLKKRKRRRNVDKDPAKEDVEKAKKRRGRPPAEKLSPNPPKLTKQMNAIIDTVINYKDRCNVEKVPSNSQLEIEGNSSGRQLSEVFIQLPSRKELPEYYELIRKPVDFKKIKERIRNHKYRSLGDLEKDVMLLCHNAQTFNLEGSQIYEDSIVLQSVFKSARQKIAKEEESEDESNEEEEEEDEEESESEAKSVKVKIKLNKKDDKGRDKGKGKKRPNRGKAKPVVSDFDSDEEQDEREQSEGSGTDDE

| Compound | IC50 (BRM) | Ratio* (BRM) | IC50 (BRG-1) |
| --- | --- | --- | --- |
| COc1c(-c2ccc3cnc(CNC(=O)c4ccc5c(c4)S(=O)(=O)CCOC5)cc3n2)cccc1C1CC1 [Compound 430] | 477 nM | 5.06 | 2410 nM |
| C[C@@H]1CN(c2cccc(-c3ccc4cnc(CNC(=O)c5ccc6c(c5)S(=O)(=O)CC[C@@H](C5CC5)O6)cc4n3)n2)C[C@H](C)O1 [Compound 433] | 331 nM | 13.59 | 4500 nM |
| O=C(NCc1cc2nc(-c3cncc(C4CC4)n3)ccc2cn1)c1cnc2c(c1)S(=O)(=O)CCCC2(F)F [Compound 434] | 118 nM | 13.52 | 1590 nM |
| C[C@@H]1CN(c2cccc(-c3ccc4cnc(CNC(=O)c5ccc6c(c5)S(=O)(=O)CC[C@H](C5CC5)O6)cc4n3)n2)C[C@H](C)O1 [Compound 435] | 230 nM | 18.45 | 4250 nM |
| CO[C@H]1CCN(c2cccc(-c3ccc4cnc(CNC(=O)c5ccc6c(c5)S(=O)(=O)CCOC6)cc4n3)n2)C[C@H]1C [Compound 437] | 24.8 nM | 11.79 | 292 nM |
| CO[C@@H]1CCN(c2cccc(-c3ccc4cnc(CNC(=O)c5ccc6c(c5)S(=O)(=O)CCOC6)cc4n3)n2)C[C@@H]1C [Compound 438] | 31.8 nM | 11.23 | 357 nM |
| Cc1cnc2c(n1)CCCN2c1ccc2cnc(CNC(=O)c3ccc4c(c3)S(=O)(=O)CCOC4)cc2n1 [Compound 440] | 32.3 nM | 14.01 | 453 nM |
| C[C@H]1COCc2ccc(C(=O)NCc3cc4nc(-c5cccc(C6CC6)n5)cnc4cn3)cc2S1(=O)=O [Compound 443] | 34.7 nM | 36.53 | 1270 nM |
| COCc1ccc2c(n1)N(c1ccc3cnc(CNC(=O)c4ccc5c(c4)S(=O)(=O)CCOC5)cc3n1)CCC2 [Compound 445] | 20.4 nM | 32.29 | 658 nM |
| COCc1cnc2c(c1)CCCN2c1ccc2cnc(CNC(=O)c3ccc4c(c3)S(=O)(=O)CCOC4)cc2n1 [Compound 447] | 22.1 nM | 10.05 | 222 nM |
| CO[C@H](C)Cn1ccc2c(-c3ccc4cnc(CNC(=O)c5ccc6c(c5)S(=O)(=O)CCOC6)cc4n3)ccnc21 [Compound 448] | 263 nM | 13.96 | 3670 nM |
| CO[C@@H](C)Cn1ccc2c(-c3ccc4cnc(CNC(=O)c5ccc6c(c5)S(=O)(=O)CCOC6)cc4n3)ccnc21 [Compound 449] | 34.9 nM | 14.08 | 491 nM |
| C[C@H]1COCc2ncc(C(=O)NCc3cc4nc(-c5cccc(C6CC6)n5)ccc4cn3)cc2S1(=O)=O [Compound 452] | 44 nM | 21.77 | 958 nM |
| CCOc1cccc(-c2ccc3cnc(CNC(=O)c4cc(F)c5c(c4)S(=O)(=O)[C@@H](C)COC5)cc3n2)n1 [Compound 453] | 27.4 nM | 21.75 | 595 nM |
| C[C@@H]1CN(c2cccc(-c3ccc4cnc(CNC(=O)c5ccc6c(c5)S(=O)(=O)CCO[C@@H]6C5CC5)cc4n3)n2)C[C@H](C)O1 [Compound 454] | 25.2 nM | 8.46 | 213 nM |
| C[C@H]1COCc2c(F)cc(C(=O)NCc3cc4nc(-c5cccc(C6CC6)n5)ccc4cn3)cc2S1(=O)=O [Compound 458] | 19.2 nM | 34.03 | 654 nM |
| CN(CCC(F)F)c1cccc(-c2ccc3cnc(CNC(=O)c4ccc5c(c4)S(=O)(=O)CCOC5)cc3n2)n1 [Compound 460] | 24.2 nM | 9.71 | 235 nM |
| C[C@H]1COCc2ccc(C(=O)NCc3cc4nc(-c5ccnc([C@H]6CC6(F)F)n5)ccc4cn3)cc2S1(=O)=O [Compound 464] | 36 nM | 27.40 | 986 nM |
| C[C@H]1COCc2ccc(C(=O)NCc3cc4nc(-c5ccnc([C@@H]6CC6(F)F)n5)ccc4cn3)cc2S1(=O)=O [Compound 465] | 102 nM | 15.25 | 1560 nM |
| O=C(NCc1cc2nc(-c3ccc4c(n3)N3CCOCC3C4)ccc2cn1)c1ccc2c(c1)S(=O)(=O)CCOC2 (stereo not drawn) [Compound 466] | 122 nM | 6.83 | 832 nM |
| C[C@@H]1CCc2ccc(-c3ccc4cnc(CNC(=O)c5ccc6c(c5)S(=O)(=O)CCOC6)cc4n3)nc2N1C [Compound 467] | 23.6 nM | 4.32 | 102 nM |
| C[C@H]1CCc2ccc(-c3ccc4cnc(CNC(=O)c5ccc6c(c5)S(=O)(=O)CCOC6)cc4n3)nc2N1C [Compound 468] | 24.9 nM | 7.67 | 191 nM |
| O=C(NCc1cc2nc(N3CCCCc4cccnc43)ccc2cn1)c1ccc2c(c1)S(=O)(=O)CCOC2 [Compound 469] | 2340 nM | 1.82 | 4260 nM |
| C[C@H](C1COC1)N(C)c1cccc(-c2ccc3cnc(CNC(=O)c4ccc5c(c4)S(=O)(=O)CCOC5)cc3n2)n1 [Compound 470] | 74.8 nM | 12.76 | 954 nM |
| C[C@@H](C1COC1)N(C)c1cccc(-c2ccc3cnc(CNC(=O)c4ccc5c(c4)S(=O)(=O)CCOC5)cc3n2)n1 [Compound 471] | 167 nM | 5.29 | 884 nM |
| O=C(NCc1cc2nc(-c3cccc(C45COCC4C5)n3)ccc2cn1)c1ccc2c(c1)S(=O)(=O)CCOC2 (stereo not drawn) [Compound 472] | 25 nM | 14.93 | 373 nM |
| C[C@@H]1CN(c2cccc(-c3ccc4cnc(CNC(=O)c5ccc(CC(C)(F)F)c(S(C)(=O)=O)c5)cc4n3)n2)C[C@H](C)O1 [Compound 474] | 230 nM | 20.44 | 4690 nM |
| C/C(F)=C/c1ccc(C(=O)NCc2cc3nc(-c4cccc(N5C[C@@H](C)O[C@@H](C)C5)n4)ccc3cn2)cc1S(C)(=O)=O [Compound 475] | 215 nM | 7.79 | 1680 nM |
| COC[C@H]1CCc2ccc(-c3ccc4cnc(CNC(=O)c5ccc6c(c5)S(=O)(=O)CCOC6)cc4n3)nc2N1C [Compound 477] | 45.2 nM | 6.50 | 293 nM |
| O=C(NCc1cc2nc(N3CCCc4c(Cl)ccnc43)ccc2cn1)c1ccc2c(c1)S(=O)(=O)CCOC2 [Compound 478] | 25.5 nM | 9.80 | 250 nM |

Stronger by IC50 (BRM), values ahead:

| IC50 (BRM) | Ratio* (BRM) | IC50 (BRG-1) | Compound |
| --- | --- | --- | --- |
| 18.5 nM | 21.49 | 398 nM | Cc1cc(C(=O)NCc2cc3nc(-c4cccc(N5C[C@@H](C)O[C@@H](C)C5)n4)ccc3cn2)cc2c1OCC[C@H](C)S2(=O)=O [Compound 456] |
| 16.4 nM | 10.89 | 178 nM | CN1CCN(c2ccc3cnc(CNC(=O)c4ccc5c(c4)S(=O)(=O)CCOC5)cc3n2)c2ncccc21 [Compound 442] |
| 16.1 nM | 9.43 | 152 nM | C[C@@H]1CN(c2cccc(-c3ccc4cnc(CNC(=O)c5cc(Cl)c6c(c5)S(=O)(=O)[C@@H](C)COC6)cc4n3)n2)C[C@H](C)O1 [Compound 431] |
| 15 nM | 15.10 | 226 nM | COC[C@H]1C[C@@H](N(C)c2cccc(-c3ccc4cnc(CNC(=O)c5ccc6c(c5)S(=O)(=O)CCOC6)cc4n3)n2)C1 [Compound 436] |
| 14.9 nM | 12.27 | 183 nM | O=C(NCc1cc2nc(-c3cncc(C4CC4)n3)ccc2cn1)c1cnc2c(c1)S(=O)(=O)CCCCC2 [Compound 450] |
| 13 nM | 2.12 | 27.5 nM | CO[C@H]1CCS(=O)(=O)c2cc(C(=O)NCc3cc4nc(-c5cccc(N6C[C@@H](C)O[C@@H](C)C6)n5)ccc4cn3)ccc2C1 [Compound 444] |
| 11.7 nM | 8.52 | 99.5 nM | CN(C)c1cnc2c(c1)CCCN2c1ccc2cnc(CNC(=O)c3ccc4c(c3)S(=O)(=O)CCOC4)cc2n1 [Compound 441] |
| 11.2 nM | 2.83 | 31.7 nM | CO[C@@H]1CCS(=O)(=O)c2cc(C(=O)NCc3cc4nc(-c5cccc(N6C[C@@H](C)O[C@@H](C)C6)n5)ccc4cn3)ccc2C1 [Compound 446] |
| 10.9 nM | 13.46 | 147 nM | O=C(NCc1cc2nc(N3CCCc4cc(C(F)F)cnc43)ccc2cn1)c1ccc2c(c1)S(=O)(=O)CCOC2 [Compound 473] |
| 7.8 nM | 15.21 | 119 nM | Cc1cc2c(nc1C)N(c1ccc3cnc(CNC(=O)c4ccc5c(c4)S(=O)(=O)CCOC5)cc3n1)CCC2 [Compound 463] |
| 5.9 nM | 8.14 | 48.3 nM | Cc1cc(C(=O)NCc2cc3nc(-c4cccc(N5C[C@@H](C)O[C@@H](C)C5)n4)ccc3cn2)cc2c1COC[C@H](C)S2(=O)=O [Compound 457] |
| 5 nM | 1.60 | 8 nM | C[C@@H]1CN(c2cccc(-c3ccc4cnc(CNC(=O)c5cnc6c(c5)S(=O)(=O)CCCCC6)cc4n3)n2)C[C@H](C)O1 [Compound 451] |
| 4.4 nM | 10.04 | 43.8 nM | COc1ccnc2c1CCCN2c1ccc2cnc(CNC(=O)c3ccc4c(c3)S(=O)(=O)CCOC4)cc2n1 [Compound 439] |
| 3.7 nM | 9.82 | 36.6 nM | COC[C@@H]1CCc2ccc(-c3ccc4cnc(CNC(=O)c5ccc6c(c5)S(=O)(=O)CCOC6)cc4n3)nc2N1C [Compound 476] |
